Molecules are shown by their SMILES.

The target in the assay is T1, human MC2R (Homo sapiens, UniProt Q01718).
T1 construct: host or cells: GeneBLAzer MC2R-CRE-bla CHO-K1 cells
T1 sequence (Q01718 whole entry): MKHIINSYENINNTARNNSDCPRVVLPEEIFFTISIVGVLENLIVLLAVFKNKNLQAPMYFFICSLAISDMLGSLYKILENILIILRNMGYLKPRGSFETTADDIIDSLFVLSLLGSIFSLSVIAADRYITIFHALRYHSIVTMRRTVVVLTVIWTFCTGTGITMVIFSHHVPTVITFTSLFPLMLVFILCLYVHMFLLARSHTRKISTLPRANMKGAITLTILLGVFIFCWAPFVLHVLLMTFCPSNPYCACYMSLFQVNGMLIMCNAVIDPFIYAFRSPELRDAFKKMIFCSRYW
T1 sequence (Q8TCY5 whole entry partner): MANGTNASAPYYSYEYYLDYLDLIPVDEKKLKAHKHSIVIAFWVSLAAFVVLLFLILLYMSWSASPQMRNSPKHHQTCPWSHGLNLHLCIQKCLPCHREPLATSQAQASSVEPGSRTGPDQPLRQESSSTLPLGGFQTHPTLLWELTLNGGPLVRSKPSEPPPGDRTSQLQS
Put plainly: Measurement of human MC2R inhibitory activity using intracellular cAMP concentration as an indicator. Type of assay: cell-based. The following applies: test compound at 1 µM; GeneBLAzer MC2R-CRE-bla CHO-K1 cells; ACTH (Human 1-24) final concentration 3 pM; intracellular cAMP by HTRF; read-out: MC2R inhibition rate (% of inhibition). The protocol: Experimental Example 1: Measurement of human MC2R inhibitory activity using intracellular cAMP concentration as an indicator
GeneBLAzer MC2R-CRE-bla CHO-K1 cells (Thermo Fisher Scientific) that had been cryopreserved in advance were thawed and suspended in a medium [Dulbecco's Modified Eagle Medium (Thermo Fisher Scientific) containing fetal bovine serum (10% (v/v), HyClone Laboratories), Non-Essential Amino Acids Solution (1/100 (w/w), Thermo Fisher Scientific), HEPES (25 mM, Thermo Fisher Scientific), Penicillin/Streptomycin (1/100 (w/w), Fujifilm Wako)]. After centrifuging the cell suspension, the supernatant was removed, the cells were suspended in D-PBS(-) (Fujifilm Wako), and the supernatant was removed again after centrifugation. The cells were resuspended in an assay buffer [Hank's Balanced Salt Solution (Thermo Fisher Scientific) containing HEPES pH 7.5 (10 mM, Thermo Fisher Scientific), fatty acid-free bovine serum albumin (0.01% (w/v), Sigma), IBMX (500 µM, Fujifilm Wako)] and added to a 384-well white plate (Greiner) at 1,500 cells/well. Then, the test compound prepared using the assay buffer was added, and after standing for 20 min, an assay buffer containing ACTH (Human 1-24) (Peptide Institute) was added (ACTH final concentration, 3 pM). After standing at room temperature for 30 min, the intracellular cAMP level was measured using cAMP Gs HiRange kit HTRF (PerkinElmer). The inhibition rate (%) of the compound against MC2R was calculated using the following formula. Inhibition rate (%) = […] [formula] • A: cAMP concentration calculated from wells containing 3 pM ACTH (1-24) • B: cAMP concentration calculated from wells without addition of 3 pM ACTH (1-24) • C: cAMP concentration calculated from wells containing 3 pM ACTH (1-24) and test compound at concentration determined in advance
In general terms: In TR-FRET formats the signal depends on donor and acceptor labels being close together.
`CCOc1ncccc1-c1ccc(N2CCN3C(=O)N(c4ccc(Cl)cc4C(F)(F)F)C[C@H]3C2)c(C=O)n1` [Example 7, 3-[(8aR)-2-[4-chloro-2-(trifluoromethyl)phenyl]-3-oxo-5,6,8,8a-tetrahydro-1H-imidazo[1,5-a]pyrazin-7-yl]-6-(2-ethoxypyridin-3-yl)pyridine-2-carbaldehyde]: the inhibition at 1 µM was 91%.

As to `CCOc1ncccc1-c1ccc(N2C[C@H]3CN(c4ccc(Cl)cc4C(F)(F)F)C(=O)N3C[C@H]2CC)c(C(=O)O)n1` [Example 38a, 3-[(6R,8aS)-2-[4-chloro-2-(trifluoromethyl)phenyl]-6-ethyl-3-oxo-5,6,8,8a-tetrahydro-1H-imidazo[1,5-a]pyrazin-7-yl]-6-(2-ethoxy-3-pyridyl)pyridine-2-carboxylic acid], the inhibition at 1 µM worked out at 91%.

`CC[C@@H]1CN2C(=O)N(c3ccc(Cl)cc3C(F)(F)F)C[C@@H]2CN1c1ccc(-c2cccnc2OC)nc1C(=O)N[C@@H]1CC(=O)N(C)C1` [Example 69, 3-[(6R,8aS)-2-[4-chloro-2-(trifluoromethyl)phenyl]-6-ethyl-3-oxo-5,6,8,8a-tetrahydro-1H-imidazo[1,5-a]pyrazin-7-yl]-6-(2-methoxy-3-pyridinyl)-N-[(3R)-1-methyl-5-oxopyrrolidin-3-yl]pyridine-2-carboxamide]: the inhibition at 1 µM turned out to be 92%.

As to `CCOc1ncccc1-c1ccc(N2CCN3C(=O)N(c4ccc(Cl)cc4C(F)(F)F)C[C@@H]3C2)c(C(=O)NCC2(O)COC2)n1` [Example 15, 3-[(8aS)-2-[4-chloro-2-(trifluoromethyl)phenyl]-3-oxo-5,6,8,8a-tetrahydro-1H-imidazo[1,5-a]pyrazin-7-yl]-6-(2-ethoxypyridin-3-yl)-N-[(3-hydroxyoxetan-3-yl)methyl]pyridine-2-carboxamide], the inhibition at 1 µM came out at 100%.

For `CCOc1ncccc1-c1ccc(N2C[C@H]3CN(c4ccc(F)cc4C(F)(F)F)C(=O)N3C[C@H]2CC)c(C(=O)N[C@H]2CNC(=O)C2)n1` [Example 51, 3-[(6R,8aS)-6-ethyl-2-[4-fluoro-2-(trifluoromethyl)phenyl]-3-oxo-5,6,8,8a-tetrahydro-1H-imidazo[1,5-a]pyrazin-7-yl]-6-(2-ethoxypyridin-3-yl)-N-[(3R)-5-oxopyrrolidin-3-yl]pyridine-2-carboxamide], the inhibition at 1 µM worked out at 100%.

As to `CCOc1ncccc1-c1ccc(N2CCN3C(=O)N(c4ccc(Cl)cc4C(F)(F)F)C[C@@H]3C2)c(C(=O)NCCN(C)C)n1` [Example 6, 3-[(8aS)-2-[4-chloro-2-(trifluoromethyl)phenyl]-3-oxo-5,6,8,8a-tetrahydro-1H-imidazo[1,5-a]pyrazin-7-yl]-N-[2-(dimethylamino)ethyl]-6-(2-ethoxypyridin-3-yl)pyridine-2-carboxamide], the inhibition at 1 µM worked out at 100%.

Take `CCOc1ncccc1-c1ccc(N2C[C@H]3CN(c4ccc(Cl)cc4C(F)(F)F)C(=O)N3C[C@H]2CC)c(C(=O)NC2CNC(=O)C2)n1` (stereo partly drawn) [Example 29, 3-[(6R,8aS)-2-[4-chloro-2-(trifluoromethyl)phenyl]-6-ethyl-3-oxo-5,6,8,8a-tetrahydro-1H-imidazo[1,5-a]pyrazin-7-yl]-6-(2-ethoxypyridin-3-yl)-N-(5-oxopyrrolidin-3-yl)pyridine-2-carboxamide]: the inhibition at 1 µM was 100%.

`CCOc1ncccc1-c1ccc(N2C[C@H]3CN(c4ccc(Cl)cc4C(F)(F)F)C(=O)N3C[C@H]2CC)c(C(=O)NC[C@H]2CCN2)n1` [Example 44, 3-[(6R,8aS)-2-[4-chloro-2-(trifluoromethyl)phenyl]-6-ethyl-3-oxo-5,6,8,8a-tetrahydro-1H-imidazo[1,5-a]pyrazin-7-yl]-N-[[(2R)-azetidin-2-yl]methyl]-6-(2-ethoxypyridin-3-yl)pyridine-2-carboxamide]: the inhibition at 1 µM stood at 100%.

Take `CCOc1ncccc1-c1ccc(N2CCN3C(=O)N(c4ccc(Cl)cc4C(F)(F)F)C[C@@H]3C2)c(C(=O)NCC2(O)CC2)n1` [Example 16, 3-[(8aS)-2-[4-chloro-2-(trifluoromethyl)phenyl]-3-oxo-5,6,8,8a-tetrahydro-1H-imidazo[1,5-a]pyrazin-7-yl]-6-(2-ethoxypyridin-3-yl)-N-[(1-hydroxycyclopropyl)methyl]pyridine-2-carboxamide]: the inhibition at 1 µM amounted to 100%.

For `CCOc1ncccc1-c1ccc(N2C[C@H]3CN(C4(C(F)(F)F)CCC4)C(=O)N3C[C@H]2CC)c(C(=O)N[C@@H]2CC(=O)N(C)C2)n1` [Example 65, 3-[(6R,8aS)-6-ethyl-3-oxo-2-[1-(trifluoromethyl)cyclobutyl]-5,6,8,8a-tetrahydro-1H-imidazo[1,5-a]pyrazin-7-yl]-6-(2-ethoxy-3-pyridinyl)-N-[(3R)-1-methyl-5-oxopyrrolidin-3-yl]pyridine-2-carboxamide], the inhibition at 1 µM came to 89%.

Turning to `CCOc1ncccc1-c1ccc(N2CCN3C(=O)N(c4ccc(Cl)cc4C(F)(F)F)CC3(C)C2)c(C=O)n1` (stereo not drawn) [Example 9, 3-[2-[4-chloro-2-(trifluoromethyl)phenyl]-8a-methyl-3-oxo-1,5,6,8-tetrahydroimidazo[1,5-a]pyrazin-7-yl]-6-(2-ethoxypyridin-3-yl)pyridine-2-carbaldehyde], the inhibition at 1 µM is 99%.

For `CCOc1ncccc1-c1ccc(N2C[C@H]3CN(c4ccc(F)cc4C#N)C(=O)N3C[C@H]2CC)c(C(=O)N[C@@H]2CC(=O)N(C)C2)n1` [Example 58, 3-[(6R,8aS)-2-(2-cyano-4-fluorophenyl)-6-ethyl-3-oxo-5,6,8,8a-tetrahydro-1H-imidazo[1,5-a]pyrazin-7-yl]-6-(2-ethoxypyridin-3-yl)-N-[(3R)-1-methyl-5-oxopyrrolidin-3-yl]pyridine-2-carboxamide], the inhibition at 1 µM is 100%.

Take `CCOc1ncccc1-c1ccc(N2C[C@H]3CN(C4(C(F)(F)F)CC4)C(=O)N3C[C@H]2CC)c(C(=O)N[C@@H]2CC(=O)N(C)C2)n1` [Example 59, 3-[(6R,8aS)-6-ethyl-3-oxo-2-[1-(trifluoromethyl)cyclopropyl]-5,6,8,8a-tetrahydro-1H-imidazo[1,5-a]pyrazin-7-yl]-6-(2-ethoxy-3-pyridinyl)-N-[(3R)-1-methyl-5-oxopyrrolidin-3-yl]pyridine-2-carboxamide]: the inhibition at 1 µM was found to be 87%.

On to `CCOc1ncccc1-c1ccc(N2CCN3C(=O)N(c4ccc(Cl)cc4C(F)(F)F)C[C@@H]3C2)c(C(=O)NC2CCN(C(=O)OC(C)(C)C)C2)n1` (stereo partly drawn) [Example 17, tert-butyl 3-[[3-[(8aS)-2-[4-chloro-2-(trifluoromethyl)phenyl]-3-oxo-5,6,8,8a-tetrahydro-1H-imidazo[1,5-a]pyrazin-7-yl]-6-(2-ethoxypyridin-3-yl)pyridine-2-carbonyl]amino]pyrrolidine-1-carboxylate], for which the inhibition at 1 µM is 91%.

Regarding `CCOc1ncccc1-c1ccc(N2C[C@H]3CN(c4ccc(Cl)cc4C(F)(F)F)C(=O)N3C[C@H]2CC)c(C(=O)N[C@@H](C)C(=O)NC)n1` [Example 41, 3-[(6R,8aS)-2-[4-chloro-2-(trifluoromethyl)phenyl]-6-ethyl-3-oxo-5,6,8,8a-tetrahydro-1H-imidazo[1,5-a]pyrazin-7-yl]-6-(2-ethoxypyridin-3-yl)-N-[(2S)-1-(methylamino)-1-oxopropan-2-yl]pyridine-2-carboxamide], the inhibition at 1 µM was determined as 100%.

Consider `CCOc1ncccc1-c1ccc(N2CCN3C(=O)N(c4ccc(Cl)cc4C(F)(F)F)C[C@@H]3C2)c(C(=O)NCCS(C)(=O)=O)n1` [Example 18, 3-[(8aS)-2-[4-chloro-2-(trifluoromethyl)phenyl]-3-oxo-5,6,8,8a-tetrahydro-1H-imidazo[1,5-a]pyrazin-7-yl]-6-(2-ethoxypyridin-3-yl)-N-(2-methylsulfonylethyl)pyridine-2-carboxamide], for which the inhibition at 1 µM turned out to be 100%.

As for `CCOc1ncccc1-c1ccc(N2CCN3C(=O)N(c4ccc(Cl)cc4C(F)(F)F)C[C@@H]3C2)c(C(=O)NC2CCOC2)n1` (stereo partly drawn) [Example 20, 3-[(8aS)-2-[4-chloro-2-(trifluoromethyl)phenyl]-3-oxo-5,6,8,8a-tetrahydro-1H-imidazo[1,5-a]pyrazin-7-yl]-6-(2-ethoxypyridin-3-yl)-N-(oxolan-3-yl)pyridine-2-carboxamide], the inhibition at 1 µM stood at 99%.

Consider `CCOc1ncccc1-c1ccc(N2C[C@H]3CN(c4ccc(Cl)cc4C(F)(F)F)C(=O)N3C[C@H]2CC)c(C(=O)N[C@H]2CC(=O)N(C)C2)n1` [Example 50, 3-[(6R,8aS)-2-[4-chloro-2-(trifluoromethyl)phenyl]-6-ethyl-3-oxo-5,6,8,8a-tetrahydro-1H-imidazo[1,5-a]pyrazin-7-yl]-6-(2-ethoxypyridin-3-yl)-N-[(3S)-1-methyl-5-oxopyrrolidin-3-yl]pyridine-2-carboxamide], for which the inhibition at 1 µM turned out to be 100%.

Usually inhibition stands for the drop in the measured response relative to a control, in per cent.

These data come from patent publication EP4714953A1, “MELANOCORTIN 2-TYPE RECEPTOR ANTAGONIST” (Scohia Pharma, Inc., priority 2023, dated 2024).
